Source: ChEMBL document CHEMBL1126024, “Di- and triester prodrugs of the varicella-zoster antiviral agent 6-methoxypurine arabinoside” (J Med Chem, 1992)
In brackets after ≈: the same amount, converted by molar mass.

Tests used:
[1] = species: Rattus norvegicus; experiment: (§1) Ester prodrugs: recovery of parent compound in rat urine; type: ADME, organism-based; settings: in vivo
[2] = Solubility (phosphate buffered saline); type: physicochemical; settings: read-out: S
[3] = Ester prodrugs: stability in buffer (pH 7); type: physicochemical
[4] = species: Rattus norvegicus; experiment: as §1; type: ADME, organism-based; settings: in vivo; remark: listed apart in the source

SMILES	Urinary recovery [1]	solubility [2]	T1/2 [3]	Urinary recovery [4]
COc1ncnc2c1ncn2[C@@H]1O[C@H](COC(=O)c2ccccc2)[C@@H](OC(=O)c2ccccc2)[C@@H]1OC(=O)c1ccccc1	0.9%	8 µM (≈ 4.76 µg/mL)	–	–
COc1ccc(C(=O)OC[C@H]2O[C@@H](n3cnc4c(OC)ncnc43)[C@@H](OC(=O)c3ccc(OC)cc3)[C@@H]2OC(=O)c2ccc(OC)cc2)cc1	4.1%	< 5 µM	–	–
CCCCC(=O)OC[C@H]1O[C@@H](n2cnc3c(OC)ncnc32)[C@@H](O)[C@@H]1OC(=O)CCCC	12.8%	78 µM (≈ 35.1 µg/mL)	–	–
COc1ncnc2c1ncn2[C@@H]1O[C@H](CO)[C@@H](OC(=O)C(C)C)[C@@H]1OC(=O)C(C)C	2.3%	3300 µM (≈ 1390 µg/mL)	28.9 days	–
COc1ccc(C(=O)OC[C@H]2O[C@@H](n3cnc4c(OC)ncnc43)[C@@H](O)C2OC(=O)c2ccc(OC)cc2)cc1 (single isomer, unassigned)	0.2%	45 µM (≈ 24.8 µg/mL)	–	–
COc1ncnc2c1ncn2[C@@H]1O[C@H](CO)[C@@H](OC(=O)c2ccccc2)[C@@H]1OC(=O)c1ccccc1	0.1%	13 µM (≈ 6.38 µg/mL)	–	–
CCCCCCCC(=O)O[C@H]1[C@H](OC(=O)CCCCCCC)[C@@H](CO)O[C@H]1n1cnc2c(OC)ncnc21	12.6%	36 µM (≈ 19.2 µg/mL)	–	–
CCCC(=O)O[C@H]1[C@H](OC(=O)CCC)[C@@H](CO)O[C@H]1n1cnc2c(OC)ncnc21	4.8%	9600 µM (≈ 4060 µg/mL)	13.1 days	–
COc1ncnc2c1ncn2[C@@H]1O[C@H](CO)[C@@H](OC(=O)C(C)(C)C)[C@@H]1OC(=O)C(C)(C)C	1.6%	640 µM (≈ 288 µg/mL)	72.7 days	–
COc1ncnc2c1ncn2[C@@H]1O[C@H](COC(C)=O)[C@@H](OC(C)=O)[C@@H]1O	16.3%	12300 µM (≈ 4510 µg/mL)	30.6 days	–
COc1ncnc2c1ncn2[C@@H]1O[C@H](COC(=O)c2ccccc2)[C@@H](O)[C@@H]1OC(=O)c1ccccc1	5.8%	< 5 µM	–	–
CCCCC(=O)OC[C@H]1O[C@@H](n2cnc3c(OC)ncnc32)[C@@H](OC(=O)CCCC)[C@@H]1O	15.3%	1300 µM (≈ 586 µg/mL)	51.6 days	–
COc1ncnc2c1ncn2[C@@H]1O[C@H](COC(=O)c2ccc(Cl)cc2)[C@@H](OC(=O)c2ccc(Cl)cc2)[C@@H]1OC(=O)c1ccc(Cl)cc1	4.5%	< 5 µM	–	–
COc1ncnc2c1ncn2[C@@H]1O[C@H](CO)[C@@H](OC(C)=O)[C@@H]1OC(C)=O	19.2%	172000 µM (≈ 63000 µg/mL)	19.1 days	–
COc1ncnc2c1ncn2[C@@H]1O[C@H](COC(=O)c2ccc(C)cc2)[C@@H](OC(=O)c2ccc(C)cc2)[C@@H]1OC(=O)c1ccc(C)cc1	5.6%	< 5 µM	–	–
COc1ncnc2c1ncn2[C@@H]1O[C@H](COC(=O)C(C)(C)C)[C@@H](O)[C@@H]1OC(=O)C(C)(C)C	15.7%	1350 µM (≈ 608 µg/mL)	178 days	–
COc1ncnc2c1ncn2[C@@H]1O[C@H](COC(=O)c2ccccc2)C(OC(=O)c2ccccc2)[C@@H]1O (single isomer, unassigned)	4.3%	33 µM (≈ 16.2 µg/mL)	–	–
COc1ncnc2c1ncn2[C@@H]1O[C@H](COC(=O)C(C)(C)C)[C@@H](OC(=O)C(C)(C)C)[C@@H]1O	1.2%	32 µM (≈ 14.4 µg/mL)	–	–
COc1ncnc2c1ncn2[C@@H]1O[C@H](COC(C)=O)[C@@H](O)[C@@H]1OC(C)=O	10.6%	7100 µM (≈ 2600 µg/mL)	22.5 days	–
COc1ncnc2c1ncn2[C@@H]1O[C@H](CO)[C@@H](OC(=O)c2ccc(C)cc2)[C@@H]1OC(=O)c1ccc(C)cc1	0.2%	5 µM (≈ 2.59 µg/mL)	–	–
COc1ncnc2c1ncn2[C@@H]1O[C@H](COC(=O)Cc2ccccc2)[C@@H](OC(=O)Cc2ccccc2)[C@@H]1O	1.5%	< 5 µM	–	–
COc1ncnc2c1ncn2[C@@H]1O[C@H](COC(C)=O)[C@@H](OC(C)=O)[C@@H]1OC(C)=O	8.3%	81800 µM (≈ 33400 µg/mL)	15.2 days	–
COc1ncnc2c1ncn2[C@@H]1O[C@H](COC(=O)C(C)C)[C@@H](OC(=O)C(C)C)[C@@H]1O	17.7%	428 µM (≈ 181 µg/mL)	19.5 days	–

SMILES	Urinary recovery [1]	solubility [2]	T1/2 [3]	Urinary recovery [4]
COc1ncnc2c1ncn2[C@@H]1O[C@H](COS(C)(=O)=O)[C@@H](OS(C)(=O)=O)[C@@H]1OS(C)(=O)=O	4.4%	3220 µM (≈ 1660 µg/mL)	> 70 days	–
CCC(=O)OC[C@H]1O[C@@H](n2cnc3c(OC)ncnc32)[C@@H](O)[C@@H]1OC(=O)CC	11%	2390 µM (≈ 943 µg/mL)	30.2 days	–
CCCCC(=O)O[C@H]1[C@H](OC(=O)CCCC)[C@@H](CO)O[C@H]1n1cnc2c(OC)ncnc21	9.1%	694 µM (≈ 313 µg/mL)	7.02 days	–
COc1ncnc2c1ncn2[C@@H]1O[C@H](COC(=O)COc2ccccc2)[C@@H](OC(=O)COc2ccccc2)[C@@H]1OC(=O)COc1ccccc1	4.6%	22 µM (≈ 15.1 µg/mL)	–	–
CCCC(=O)OC[C@H]1O[C@@H](n2cnc3c(OC)ncnc32)[C@@H](OC(=O)CCC)[C@@H]1OC(=O)CCC	0.7%	102 µM (≈ 50.2 µg/mL)	–	–
COc1ncnc2c1ncn2[C@@H]1O[C@H](CO)[C@@H](O)[C@@H]1O	3.8%	49800 µM (≈ 14100 µg/mL)	–	25.9%
CCC(=O)O[C@H]1[C@H](OC(=O)CC)[C@@H](CO)O[C@H]1n1cnc2c(OC)ncnc21	8.7%	23500 µM (≈ 9270 µg/mL)	525 days	–
CCC(=O)OC[C@H]1O[C@@H](n2cnc3c(OC)ncnc32)[C@@H](OC(=O)CC)[C@@H]1OC(=O)CC	0.8%	3550 µM (≈ 1600 µg/mL)	127 days	–
COc1ncnc2c1ncn2[C@@H]1O[C@H](COC(=O)C(C)(C)C)[C@@H](OC(=O)C(C)(C)C)[C@@H]1OC(=O)C(C)(C)C	5.4%	14 µM (≈ 7.48 µg/mL)	–	–
CCCCCCC(=O)O[C@H]1[C@H](OC(=O)CCCCCC)[C@@H](CO)O[C@H]1n1cnc2c(OC)ncnc21	10.5%	30 µM (≈ 15.2 µg/mL)	–	–
COc1ncnc2c1ncn2[C@@H]1O[C@H](COC(=O)C(C)C)[C@@H](OC(=O)C(C)C)[C@@H]1OC(=O)C(C)C	2.1%	141 µM (≈ 69.4 µg/mL)	–	–
COc1ncnc2c1ncn2[C@@H]1O[C@H](COC(=O)C(C)C)[C@@H](O)[C@@H]1OC(=O)C(C)C	4.2%	9110 µM (≈ 3850 µg/mL)	53.6 days	–
CCCC(=O)OC[C@H]1O[C@@H](n2cnc3c(OC)ncnc32)[C@@H](O)[C@@H]1OC(=O)CCC	11.8%	422 µM (≈ 178 µg/mL)	–	–
CCCCCC(=O)O[C@H]1[C@H](OC(=O)CCCCC)[C@@H](CO)O[C@H]1n1cnc2c(OC)ncnc21	4.8%	140 µM (≈ 67 µg/mL)	–	–
COc1ccc(C(=O)OC[C@H]2O[C@@H](n3cnc4c(OC)ncnc43)[C@@H](OC(=O)c3ccc(OC)cc3)[C@@H]2O)cc1	0.2%	6 µM (≈ 3.3 µg/mL)	–	–
COc1ncnc2c1ncn2[C@@H]1O[C@H](COS(=O)(=O)c2ccc(C)cc2)[C@@H](OS(=O)(=O)c2ccc(C)cc2)[C@@H]1OS(=O)(=O)c1ccc(C)cc1	3%	5 µM (≈ 3.72 µg/mL)	–	–
COc1ncnc2c1ncn2[C@@H]1O[C@H](COC(=O)COc2ccccc2)[C@@H](OC(=O)COc2ccccc2)[C@@H]1O	3.8%	58 µM (≈ 31.9 µg/mL)	–	–
COc1ccc(C(=O)O[C@H]2[C@H](OC(=O)c3ccc(OC)cc3)[C@@H](CO)O[C@H]2n2cnc3c(OC)ncnc32)cc1	0.2%	5 µM (≈ 2.75 µg/mL)	–	–
CCCCC(=O)OC[C@H]1O[C@@H](n2cnc3c(OC)ncnc32)[C@@H](OC(=O)CCCC)[C@@H]1OC(=O)CCCC	2.2%	21 µM (≈ 11.2 µg/mL)	–	–
COc1ncnc2c1ncn2[C@@H]1O[C@H](CO)[C@@H](OC(=O)COc2ccccc2)[C@@H]1OC(=O)COc1ccccc1	7.6%	67 µM (≈ 36.9 µg/mL)	–	–
COc1ncnc2c1ncn2[C@@H]1O[C@H](CO)[C@@H](OC(=O)Cc2ccccc2)[C@@H]1OC(=O)Cc1ccccc1	2.7%	204 µM (≈ 106 µg/mL)	–	–
COc1ncnc2c1ncn2[C@@H]1O[C@H](COC(=O)Cc2ccccc2)[C@@H](OC(=O)Cc2ccccc2)[C@@H]1OC(=O)Cc1ccccc1	4.1%	< 5 µM	–	–
